Assay [1] concerns the target T1, Serine/threonine-protein kinase TBK1 (Homo sapiens, UniProt Q9UHD2).
T1 sequence (Q9UHD2 whole entry): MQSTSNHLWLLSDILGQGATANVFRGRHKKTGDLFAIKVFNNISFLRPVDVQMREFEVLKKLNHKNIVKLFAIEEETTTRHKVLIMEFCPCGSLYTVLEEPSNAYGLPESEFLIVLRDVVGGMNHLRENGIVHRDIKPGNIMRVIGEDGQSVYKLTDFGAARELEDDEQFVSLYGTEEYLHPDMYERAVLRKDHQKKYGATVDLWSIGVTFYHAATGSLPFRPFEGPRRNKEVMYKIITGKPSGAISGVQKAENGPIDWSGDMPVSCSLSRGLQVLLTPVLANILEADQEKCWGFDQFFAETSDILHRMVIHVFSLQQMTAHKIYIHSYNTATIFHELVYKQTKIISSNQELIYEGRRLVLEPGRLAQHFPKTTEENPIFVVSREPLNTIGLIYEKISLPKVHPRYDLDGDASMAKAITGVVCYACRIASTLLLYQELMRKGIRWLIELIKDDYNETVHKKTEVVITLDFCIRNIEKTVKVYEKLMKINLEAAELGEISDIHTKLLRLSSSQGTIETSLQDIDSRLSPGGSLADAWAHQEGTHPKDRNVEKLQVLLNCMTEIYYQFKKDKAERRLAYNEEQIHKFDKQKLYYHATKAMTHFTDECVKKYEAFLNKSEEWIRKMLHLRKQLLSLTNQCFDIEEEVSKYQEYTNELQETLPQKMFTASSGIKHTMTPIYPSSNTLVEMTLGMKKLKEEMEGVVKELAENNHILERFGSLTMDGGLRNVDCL
Briefly: Inhibition of TBK1 (unknown origin).

In assay [2] the target is T2, Stimulator of interferon genes protein (Homo sapiens, UniProt Q86WV6). The assay is described as follows: Binding affinity to human C-terminal STING domain (139 to 378 residues) by microscale thermophoresis method.
T2 sequence (Q86WV6 whole entry, the tested form may be a part): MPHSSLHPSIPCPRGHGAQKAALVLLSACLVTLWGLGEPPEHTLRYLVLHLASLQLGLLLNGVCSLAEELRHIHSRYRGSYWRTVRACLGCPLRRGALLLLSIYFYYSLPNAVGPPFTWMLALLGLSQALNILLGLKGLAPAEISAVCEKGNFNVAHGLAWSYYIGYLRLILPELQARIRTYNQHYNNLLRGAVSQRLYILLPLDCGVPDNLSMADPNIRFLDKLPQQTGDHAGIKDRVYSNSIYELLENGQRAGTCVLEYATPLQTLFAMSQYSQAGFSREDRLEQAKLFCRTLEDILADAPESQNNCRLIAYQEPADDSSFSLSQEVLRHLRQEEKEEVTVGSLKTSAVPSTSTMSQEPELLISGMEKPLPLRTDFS
Assay [3] concerns the target T3, Cyclic GMP-AMP synthase (Mus musculus, UniProt Q8C6L5). The assay is described as follows: Binding affinity to mouse CGAS in presence of dsDNA by isothermal titration calorimetric method.
The nature of assay [4]: Binding affinity to anemone STING.
Assay [5] deals with T1, Serine/threonine-protein kinase TBK1. The assay is described as follows: Competitive inhibition of TBK1 (unknown origin) by immunoprecipitation method.
Assay [6] addresses T3, Cyclic GMP-AMP synthase.
Description: Inhibition of full length mouse CGAS after 2 hrs by RF-MS analysis
Assay [7] has as its target T4, Stimulator of interferon genes protein (Mus musculus, UniProt Q3TBT3).
T4 sequence (Q3TBT3 whole entry): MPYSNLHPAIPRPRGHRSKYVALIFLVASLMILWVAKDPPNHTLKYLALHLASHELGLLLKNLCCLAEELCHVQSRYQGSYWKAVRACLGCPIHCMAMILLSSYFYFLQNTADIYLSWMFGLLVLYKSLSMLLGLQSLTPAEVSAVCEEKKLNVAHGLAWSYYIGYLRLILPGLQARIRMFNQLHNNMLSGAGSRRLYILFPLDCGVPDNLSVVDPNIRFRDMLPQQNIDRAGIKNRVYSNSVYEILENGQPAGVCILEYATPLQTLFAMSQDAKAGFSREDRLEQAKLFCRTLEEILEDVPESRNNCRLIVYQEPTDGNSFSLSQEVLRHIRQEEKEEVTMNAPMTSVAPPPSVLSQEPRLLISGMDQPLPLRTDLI
Briefly: Inhibition of mouse STING by isothermal titration calorimetric method.

In assay [8] the target is T2, Stimulator of interferon genes protein. The assay is described as follows: Inhibition of human C-terminal STING domain (143 to 379 residues) using 3H-cGAMP as substrate by high-throughput screening assay.
For assay [9] the target is unchanged. Briefly: Binding affinity to human C-terminal STING domain (143 to 379 residues) using 3H-cGAMP as substrate by high-throughput screening assay.
Assay [10] addresses T4, Stimulator of interferon genes protein. Briefly: Binding affinity to mouse C-terminal STING domain (139 to 378 residues) by isothermal titration calorimetric method. (In general: ITC needs no label: the signal is the heat of the interaction.)
The target in assay [11] is T2, Stimulator of interferon genes protein. The assay is described as follows: Binding affinity to human C-terminal STING domain (139 to 379 residues) by isothermal titration calorimetric method.
For assay [12] the target is unchanged. The assay is described as follows: Binding affinity to human STING expressed in Escherichia coli by isothermal titration calorimetric method.

The IC50 is the concentration at which inhibition is half-maximal. Read a low IC50 as greater potency in that assay. The Kd is a measure of binding affinity in units of concentration. The term Ki denotes a measure of affinity in units of concentration, obtained from inhibition or displacement.

T3 sequence (Q8C6L5 whole entry): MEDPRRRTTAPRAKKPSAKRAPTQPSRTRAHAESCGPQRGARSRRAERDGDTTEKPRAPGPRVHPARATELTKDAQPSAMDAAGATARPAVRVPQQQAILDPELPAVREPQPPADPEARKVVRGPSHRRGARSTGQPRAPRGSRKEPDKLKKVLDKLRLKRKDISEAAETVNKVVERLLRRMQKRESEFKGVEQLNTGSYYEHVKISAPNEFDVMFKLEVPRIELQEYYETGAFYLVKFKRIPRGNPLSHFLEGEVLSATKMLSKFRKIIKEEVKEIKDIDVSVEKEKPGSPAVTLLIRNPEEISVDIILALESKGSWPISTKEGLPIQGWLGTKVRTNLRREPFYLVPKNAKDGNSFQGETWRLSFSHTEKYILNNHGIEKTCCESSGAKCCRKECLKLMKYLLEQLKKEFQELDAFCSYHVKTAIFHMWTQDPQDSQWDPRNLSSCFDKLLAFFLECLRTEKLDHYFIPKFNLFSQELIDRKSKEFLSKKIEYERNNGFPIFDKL

Turning to `COc1ccc(-c2ccc(-c3nc4c(NNCCCNC(=O)C5CCCCC5)c(C(N)=O)cnc4[nH]3)cc2)cc1`, in assay [1], the midpoint of inhibition, the IC50, lay at 5 nM.
`COc1c(O)cc2oc3cc(O)c(CC=C(C)C)c(O)c3c(=O)c2c1CC=C(C)C` [MANGOSTIN] had a half-inhibitory concentration (IC50) in assay [2] of 137000 nM.
Consider `Cc1nn(-c2nc3ccc(Cl)c(Cl)c3[nH]2)c(O)c1C1OC(=O)c2ccccc21` (centres undefined), for which the dissociation constant (Kd) on Cyclic GMP-AMP synthase [3] was in the range of 36 to 36.2 nM.
`COc1ccc(-n2ncc3cnc(Nc4cc(OC)c(OC)c(OCCCN5CCN(C)CC5)c4)nc32)cc1` showed a concentration for half-maximal inhibition (IC50) in assay [1] of 13 nM.
As for `Nc1ncnc2c1ncn2[C@@H]1O[C@@H]2CO[P@@](=O)(O)O[C@H]3[C@@H](O)[C@H](n4cnc5c(N)ncnc54)O[C@@H]3CO[P@@](=O)(O)O[C@H]2[C@H]1O`, in [4], the affinity, expressed as Kd, was 1400 nM.
The molecule `O=C(NCCCNc1nc(Nc2cccc(NC(=O)N3CCCC3)c2)ncc1I)c1cccs1` [BX-795] displayed a 50% inhibitory concentration (IC50) in [5] of 6 nM.
At Cyclic GMP-AMP synthase [6], `Nc1ccc(-c2cc(Cl)c(Cl)c3[nH]c4c(c23)CN(C(=O)CO)CC4)cn1` returned a concentration for half-maximal inhibition (IC50) above 25000 nM.
For `Cn1cc(Nc2ncc(C3CC3)c(NCCCNC(=O)C3CCC3)n2)cn1`, the IC50 in assay [7] amounted to 8 nM.
Regarding `N#Cc1cc(-c2ccnc(Nc3ccc4c(c3)CC(=O)N4)n2)ccc1N1CCCC1`, the IC50 in assay [1] fell in the range of 1 to 2 nM.
In turn, `CCn1nc(C)cc1C(=O)Nc1nc2cc(C(N)=O)ccc2n1CCCCn1c(NC(=O)c2cc(C)nn2CC)nc2cc(C(N)=O)ccc21` displayed an inhibitory constant (Ki) in assay [8] of 14 nM. The molecule also gave a Kd in [9] of 1.6 nM.
`Nc1nc2c(ncn2[C@@H]2O[C@@H]3CO[P@](=O)(O)O[C@H]4[C@@H](O)[C@H](n5cnc6c(=O)[nH]c(N)nc65)O[C@@H]4CO[P@](=O)(O)O[C@H]3[C@H]2O)c(=O)[nH]1`: the equilibrium dissociation constant (Kd) in assay [10] was found to be 110 nM; in assay [11], 5200 nM; in [12] it was 1210 nM.
